Laboratory results reported in ChEMBL document CHEMBL5303304, “EUbOPEN Chemogenomics Library - IncuCyte” (2023).
“And” between values parts separate entries of the source, which are not always exact repeats. Identical values can stand only once.

Columns and labels:
Format in all cases: toxicity, cell-based
[1] = tested on: HEK-293T; assay: Incucyte cell viability with HEK293T; settings: human, 10 µM, compound concentration 10 uM
[2] = tested on: Fibroblast; assay: Incucyte cell viability with human fibroblast; settings: 10 µM, compound concentration 10 uM
[3] = tested on: U2OS; assay: Incucyte cell viability with U2OS; settings: human, 10 µM, compound concentration 10 uM
Note: unitless GR value; below 1 slowed growth and below 0 cell loss.

## COc1ccc(N(C(=O)Nc2c(C)cccc2C)c2cc(Nc3ccc(N4CCN(C)CC4)cc3)ncn2)c(OC)c1
[1]; 0 h, replicate number 2
  Growth Rate: 1
[2]; 0 h, replicate number 2
  Growth Rate: -0.56
[3]; 0 h, replicate number 1
  Growth Rate: 0.61
[3]; 6 h, replicate number 1
  Growth Rate: 0.85
[3]; 6 h, replicate number 2
  Growth Rate: 0.97
[3]; 12 h, replicate number 1
  Growth Rate: 0.77
[3]; 12 h, replicate number 2
  Growth Rate: 0.57
[3]; 18 h, replicate number 1
  Growth Rate: 0.25
[3]; 18 h, replicate number 2
  Growth Rate: 0.14
[3]; 24 h, replicate number 1
  Growth Rate: -0.25
[3]; 24 h, replicate number 2
  Growth Rate: -0.2

## COc1ccc2c(O[C@@H]3C[C@H]4C(=O)N[C@]5(C(=O)O)CC5/C=C\CCCCC[C@H](NC(=O)OC5CCCC5)C(=O)N4C3)cc(-c3csc(NC(=O)C(C)C)n3)nc2c1C (some centres undefined) [BI 1230]
[1]; 6 h, replicate number 1
  Growth Rate: 0.86 and 0.76
[1]; 12 h, replicate number 1
  Growth Rate: 0.92 and 0.77
[1]; 18 h, replicate number 1
  Growth Rate: 0.86 and 0.65
[1]; 24 h, replicate number 1
  Growth Rate: 0.7
[1]; 24 h, replicate number 2
  Growth Rate: 0.34 and 0.67
[2]; 0 h, replicate number 2
  Growth Rate: 0.45
[2]; 12 h, replicate number 1
  Growth Rate: 0.15 and 0.2
[2]; 12 h, replicate number 2
  Growth Rate: -0.04 and -0.05
[2]; 24 h, replicate number 1
  Growth Rate: 0.07 and 0.17
[3]; 0 h, replicate number 1
  Growth Rate: 0.55
[3]; 6 h, replicate number 1
  Growth Rate: 0.71 and 0.63
[3]; 6 h, replicate number 2
  Growth Rate: 0.86
[3]; 12 h, replicate number 2
  Growth Rate: 0.86
[3]; 18 h, replicate number 1
  Growth Rate: 0.65 and 0.86
[3]; 18 h, replicate number 2
  Growth Rate: 0.98
[3]; 24 h, replicate number 1
  Growth Rate: 0.77 and 0.99
[3]; 24 h, replicate number 2
  Growth Rate: 0.95

## O=C(NCCN1CCOCC1)c1ccc2nn(CCOc3ccc(Cl)cc3)cc2c1
[1]; 0 h, replicate number 1
  Growth Rate: 0.54
[1]; 0 h, replicate number 2
  Growth Rate: 0.3
[1]; 6 h, replicate number 1
  Growth Rate: 0.47
[1]; 6 h, replicate number 2
  Growth Rate: 0.26
[1]; 12 h, replicate number 1
  Growth Rate: 0.82
[1]; 12 h, replicate number 2
  Growth Rate: 0.18
[1]; 18 h, replicate number 1
  Growth Rate: 0.71
[1]; 18 h, replicate number 2
  Growth Rate: 0.47
[1]; 24 h, replicate number 1
  Growth Rate: 0.72
[1]; 24 h, replicate number 2
  Growth Rate: 0.61
[2]; 0 h, replicate number 1
  Growth Rate: -1
[2]; 0 h, replicate number 2
  Growth Rate: -0.92
[2]; 6 h, replicate number 1
  Growth Rate: 0.63
[2]; 6 h, replicate number 2
  Growth Rate: 0.87
[2]; 12 h, replicate number 2
  Growth Rate: 0.78
[2]; 18 h, replicate number 1
  Growth Rate: 0.86
[2]; 18 h, replicate number 2
  Growth Rate: 0.98
[2]; 24 h, replicate number 1
  Growth Rate: 0.92
[3]; 0 h, replicate number 2
  Growth Rate: 0.25
[3]; 6 h, replicate number 1
  Growth Rate: 0.71
[3]; 6 h, replicate number 2
  Growth Rate: 0.98
[3]; 12 h, replicate number 2
  Growth Rate: 0.88
[3]; 24 h, replicate number 1
  Growth Rate: 0.93

## CCOC(=O)c1ncn2c1[C@@H]1CCCN1C(=O)c1cc(OC)ccc1-2
[1]; 0 h, replicate number 1
  Growth Rate: 0.49
[1]; 0 h, replicate number 2
  Growth Rate: 1
[1]; 12 h, replicate number 2
  Growth Rate: 0.89
[1]; 18 h, replicate number 1
  Growth Rate: 0.83
[1]; 24 h, replicate number 1
  Growth Rate: 0.82
[1]; 24 h, replicate number 2
  Growth Rate: 0.95
[2]; 0 h, replicate number 1
  Growth Rate: 0.48
[2]; 0 h, replicate number 2
  Growth Rate: -0.85
[2]; 6 h, replicate number 1
  Growth Rate: 0.02
[2]; 6 h, replicate number 2
  Growth Rate: 0.2
[2]; 18 h, replicate number 1
  Growth Rate: 0.09
[2]; 24 h, replicate number 1
  Growth Rate: 0.63
[3]; 0 h, replicate number 1
  Growth Rate: -0.46
[3]; 0 h, replicate number 2
  Growth Rate: -0.82
[3]; 6 h, replicate number 1
  Growth Rate: 0.4
[3]; 12 h, replicate number 1
  Growth Rate: 0.92
[3]; 18 h, replicate number 1
  Growth Rate: 0.9
[3]; 24 h, replicate number 1
  Growth Rate: 0.81

## CNc1nc(NCc2ncccn2)c2c(-c3ccc4ncccc4c3)c[nH]c2n1
[1]; 6 h, replicate number 1
  Growth Rate: 0.58
[1]; 6 h, replicate number 2
  Growth Rate: 0.42
[1]; 12 h, replicate number 1
  Growth Rate: 0.9
[1]; 12 h, replicate number 2
  Growth Rate: 0.84
[1]; 18 h, replicate number 1
  Growth Rate: 0.83
[1]; 18 h, replicate number 2
  Growth Rate: 0.8
[1]; 24 h, replicate number 1
  Growth Rate: 0.84
[1]; 24 h, replicate number 2
  Growth Rate: 0.86
[2]; 0 h, replicate number 1
  Growth Rate: -0.08
[2]; 0 h, replicate number 2
  Growth Rate: -0.54
[2]; 12 h, replicate number 1
  Growth Rate: -0.94
[2]; 18 h, replicate number 1
  Growth Rate: 0.83
[3]; 6 h, replicate number 1
  Growth Rate: 0.78
[3]; 6 h, replicate number 2
  Growth Rate: 0.82
[3]; 12 h, replicate number 2
  Growth Rate: 0.7
[3]; 18 h, replicate number 1
  Growth Rate: 0.84
[3]; 18 h, replicate number 2
  Growth Rate: 0.85
[3]; 24 h, replicate number 1
  Growth Rate: 0.94
[3]; 24 h, replicate number 2
  Growth Rate: 0.86

## CCn1c(=O)c2c(C)c(C(=O)N3CCC(O)CC3)sc2n(CCC(F)(F)F)c1=O
[1]; 0 h, replicate number 1
  Growth Rate: 0.93
[1]; 0 h, replicate number 2
  Growth Rate: 0.32
[1]; 6 h, replicate number 1
  Growth Rate: 0.41
[1]; 12 h, replicate number 1
  Growth Rate: 0.79
[1]; 18 h, replicate number 1
  Growth Rate: 0.74
[1]; 18 h, replicate number 2
  Growth Rate: 0.86
[1]; 24 h, replicate number 1
  Growth Rate: 0.83
[2]; 0 h, replicate number 2
  Growth Rate: 0.25
[2]; 24 h, replicate number 2
  Growth Rate: 0.97
[3]; 6 h, replicate number 2
  Growth Rate: 0.72
[3]; 12 h, replicate number 2
  Growth Rate: 0.97
[3]; 18 h, replicate number 2
  Growth Rate: 0.97

## C=C[C@H]1C[N@@]2CC[C@H]1C[C@@H]2[C@@H](O)c1ccnc2ccc(OC)cc12 [QUINIDINE]
[1]; 6 h, replicate number 2
  Growth Rate: 0.85
[2]; 0 h, replicate number 1
  Growth Rate: -0.43
[2]; 6 h, replicate number 1
  Growth Rate: 0.36
[2]; 6 h, replicate number 2
  Growth Rate: 0.17
[2]; 12 h, replicate number 1
  Growth Rate: -1
[2]; 12 h, replicate number 2
  Growth Rate: 0.9
[2]; 18 h, replicate number 2
  Growth Rate: 1
[2]; 24 h, replicate number 2
  Growth Rate: 0.74
[3]; 0 h, replicate number 2
  Growth Rate: -1
[3]; 6 h, replicate number 2
  Growth Rate: -0.07
[3]; 12 h, replicate number 1
  Growth Rate: 0.59
[3]; 12 h, replicate number 2
  Growth Rate: 0.65
[3]; 18 h, replicate number 1
  Growth Rate: 0.93
[3]; 18 h, replicate number 2
  Growth Rate: 0.73
[3]; 24 h, replicate number 1
  Growth Rate: 0.96
[3]; 24 h, replicate number 2
  Growth Rate: 0.83

## COc1cc(CN(CCN)C(=O)N[C@@H](C)c2ccccc2)ccc1OCc1ccccc1.Cl
[1]; 12 h, replicate number 2
  Growth Rate: 0.77
[1]; 18 h, replicate number 2
  Growth Rate: 0.81
[1]; 24 h, replicate number 2
  Growth Rate: 0.74
[2]; 0 h, replicate number 1
  Growth Rate: -1
[2]; 6 h, replicate number 1
  Growth Rate: 0.29
[2]; 12 h, replicate number 1
  Growth Rate: 0.94
[2]; 12 h, replicate number 2
  Growth Rate: 0.41
[2]; 18 h, replicate number 1
  Growth Rate: 0.87
[2]; 18 h, replicate number 2
  Growth Rate: 0.71
[2]; 24 h, replicate number 1
  Growth Rate: 0.72
[2]; 24 h, replicate number 2
  Growth Rate: 0.83
[3]; 0 h, replicate number 1
  Growth Rate: -0.64
[3]; 0 h, replicate number 2
  Growth Rate: -0.26
[3]; 6 h, replicate number 1
  Growth Rate: 0.64
[3]; 6 h, replicate number 2
  Growth Rate: 0.82
[3]; 12 h, replicate number 1
  Growth Rate: 0.69
[3]; 18 h, replicate number 1
  Growth Rate: 0.98
[3]; 18 h, replicate number 2
  Growth Rate: 0.92
[3]; 24 h, replicate number 1
  Growth Rate: 0.79
[3]; 24 h, replicate number 2
  Growth Rate: 1

## Nc1c(CC(=O)O)cccc1C(=O)c1ccc(Br)cc1 [BROMFENAC]
[1]; 0 h, replicate number 1
  Growth Rate: 0.43
[1]; 0 h, replicate number 2
  Growth Rate: -0.53
[1]; 24 h, replicate number 1
  Growth Rate: 0.98
[2]; 0 h, replicate number 2
  Growth Rate: -0.66
[3]; 0 h, replicate number 1
  Growth Rate: 0.27
[3]; 6 h, replicate number 1
  Growth Rate: 0.2
[3]; 12 h, replicate number 1
  Growth Rate: 0.79
[3]; 12 h, replicate number 2
  Growth Rate: 0.95
[3]; 18 h, replicate number 1
  Growth Rate: 0.86
[3]; 18 h, replicate number 2
  Growth Rate: 0.92
[3]; 24 h, replicate number 1
  Growth Rate: 0.74
[3]; 24 h, replicate number 2
  Growth Rate: 0.95

## O=C(NC1CCNCC1)c1n[nH]cc1NC(=O)c1c(Cl)cccc1Cl [AT-7519]
[1]; 0 h, replicate number 1
  Growth Rate: -0.17
[1]; 6 h, replicate number 1
  Growth Rate: -0.3
[1]; 6 h, replicate number 2
  Growth Rate: -0.74
[1]; 12 h, replicate number 1
  Growth Rate: -0.27
[1]; 12 h, replicate number 2
  Growth Rate: -0.63
[1]; 18 h, replicate number 1
  Growth Rate: -0.2
[1]; 18 h, replicate number 2
  Growth Rate: -0.51
[1]; 24 h, replicate number 1
  Growth Rate: -0.15
[1]; 24 h, replicate number 2
  Growth Rate: -0.4
[2]; 0 h, replicate number 1
  Growth Rate: -1
[2]; 0 h, replicate number 2
  Growth Rate: -0.43
[2]; 6 h, replicate number 1
  Growth Rate: 0.78
[2]; 6 h, replicate number 2
  Growth Rate: 0.01
[2]; 12 h, replicate number 1
  Growth Rate: 0.38
[2]; 12 h, replicate number 2
  Growth Rate: -0.1
[2]; 18 h, replicate number 1
  Growth Rate: 0.17
[2]; 18 h, replicate number 2
  Growth Rate: -0.23
[2]; 24 h, replicate number 1
  Growth Rate: 0.08
[2]; 24 h, replicate number 2
  Growth Rate: -0.17
[3]; 6 h, replicate number 1
  Growth Rate: 0.44
[3]; 6 h, replicate number 2
  Growth Rate: 0.71
[3]; 12 h, replicate number 1
  Growth Rate: 0.18
[3]; 12 h, replicate number 2
  Growth Rate: 0.4
[3]; 18 h, replicate number 1
  Growth Rate: 0.05
[3]; 24 h, replicate number 1
  Growth Rate: -0.08
[3]; 24 h, replicate number 2
  Growth Rate: 0.03
